Measured values published in patent publication US8735423B2, “Bicyclic compounds as α4β2 nicotinic acetylcholine receptor ligands” (priority 2009, dated 2014).
Like-named read-outs stand apart in the source and are kept apart here.

Tests used:
Male Wistar rats = assay: Acute Food Intake Study (animal model of hyperphagia); type: in vivo; details: rat, oral
Procedure: The appetite suppressing properties of compounds of this invention were studied using an animal model of hyperphagia.
Male Wistar rats (200-210 grams) obtained from Raj Biotech, India were used as experimental animals. The experiment consisted of 6 days. The rats were adapted to the 18 hour fasting and 6 hour feeding pattern. The animals were housed in a group of three in the cages provided with the fasting grills and were fasted for 18 hours. After 18 hour fasting the rats were separated and placed individually in a cage. Weighed amount of feed was provided to rats for 6 hour and the feed intake at 1, 2, 4 and 6 hours was recorded. Again the rats were regrouped and fasted for 18 hour. The above procedure was followed for 5 days. The average cumulative food intake by the rats on the last 3 days was calculated. Animals were randomised on the basis of their last three days food intake.
One group of 8 rats received vehicle (2 mL/Kg) orally and another set of animals received compound of the formula (I) orally. Then the rats were given access to food and the food intake at 1, 2, 4 and 6 hours was recorded. The food intake by the rats treated with test compound was compared with the vehicle treated group by using students ‘t’ test.
Following compound shown positive effects indicating the suppression of food intake i.e. hypophagia like effects.

Male Wister rats = assay: Object Recognition Task Model; type: in vivo; details: rat; for Exploration time mean ± S.E.M, Familiar object / Exploration time mean ± S.E.M, Novel object: choice trial T2
Procedure: Object Recognition Task Model
The cognition-enhancing properties of compounds of this invention were estimated using a model of animal cognition: the object recognition task model.
Male Wister rats (230-280 grams) obtained from N. I. N. (National Institute of Nutrition, Hyderabad, India) was used as experimental animals. Four animals were housed in each cage. Animals were kept on 20% food deprivation before one day and given water ad libitum throughout the experiment and maintained on a 12 hours light/dark cycle. Also the rats were habituated to individual arenas for 1 hour in the absence of any objects.
One group of 12 rats received vehicle (1 mL/Kg) orally and another set of animals received compound of the formula (I) either orally or i.p., before one hour of the familiar (T1) and choice trial (T2).
The experiment was carried out in a 50×50×50 cm open field made up of acrylic. In the familiarization phase, (T1), the rats were placed individually in the open field for 3 minutes, in which two identical objects (plastic bottles, 12.5 cm height×5.5 cm diameter) covered in yellow masking tape alone (a1 and a2) were positioned in two adjacent corners, 10 cm. from the walls. After 24 hours of the (T1) trial for long-term memory test, the same rats were placed in the same arena as they were placed in T1 trial. Choice phase (T2) rats were allowed to explore the open field for 3 minutes in presence of one familiar object (a3) and one novel object (b) (Amber color glass bottle, 12 cm high and 5 cm in diameter). Familiar objects presented similar textures, colors and sizes. During the T1 and T2 trial, explorations of each object (defined as sniffing, licking, chewing or having moving vibrissae whilst directing the nose towards the object at a distance of less than 1 cm) were recorded separately by stopwatch. Sitting on an object was not regarded as exploratory activity, however, it was rarely observed.
T1 is the total time spent exploring the familiar objects (a1+a2).
T2 is the total time spent exploring the familiar object and novel object (a3+b).
The object recognition test was performed as described by Ennaceur, A., Delacour, J., 1988, A new one-trial test for neurobiological studies of memory in rats—Behavioural data, Behay. Brain Res., 31, 47-59.
Some representative compounds have shown positive effects indicating the increased novel object recognition viz; increased exploration time with novel object and higher discrimination index.

[1] = Rodent Brain Penetration Study; details: in vivo, Wistar rat male, P.O, read-out: Steady State Brain Penetration (Cb/Cp)
Procedure: Rodent Brain Penetration Study
Male Wistar rats (230-280 grams) obtained from NIN (National Institute of Nutrition, Hyderabad, India) was used as an experimental animal. Three animals were housed in each cage. Animals were given water and food ad libitum throughout the experiment, and maintained on a 12 hours light/dark cycle.
NCE compound was dissolved in water and administered orally. At Tmax (0.5, 1.0 and 2.0) animals were sacrificed to collect the plasma and brain tissue and was homogenized. Plasma and Brain was stored frozen at −20° C. until analysis. The concentrations of the NCE compound in plasma and Brain were determined using LC-MS/MS method.
The NCE compounds were quantified in plasma and brain homogenate by validated LC-MS/MS method using solid phase extraction technique. NCE compounds were quantified in the calibration range of 1-500 ng/mL in plasma and brain homogenate. Study samples were analyzed using calibration samples in the batch and quality control samples spread across the batch. Extents of brain-blood ratio were calculated (Cb/Cp).

High Fat Fed Rats = assay: Effect of Test Compounds on Body Weight Gain in High Fat Fed Rats; type: in vivo, rat; details: high fat diet fed Sprague Dawley rats, oral for 14 days
Text: Effect of Test Compounds on Body Weight Gain in High Fat Fed Rats
The body weight gain suppressing properties of compounds of this invention were studied using a animal model of obesity.
Male Sprague Dawley rats (150-160 grams) obtained from Reliance Life Sciences, India were used as experimental animals. Rats were fed with control diet (normal pellet diet) and lard based high fat diet (45% kcal diet) for 7-8 weeks. High fat diet fed animals was randomized according to their body weights. The animals were housed in a group of 3-4 per cage. One group of 10 rats received vehicle (2 mL/Kg) orally and another set of animals received compound of the formula (I) orally for 14 days. Body weight of the animals was recorded for first three consecutive days then it was recorded twice weekly. Weighed amount of food was given to the animals and food intake was recorded every 24 hour for the entire study period.
Following compound shown positive effects indicating the decrease in the body weight gain.

Male Sprague Dawley rats = assay: DRL-72s model of animal depression; type: in vivo; details: rat
Procedure: The antidepressant properties of compounds of this invention were evaluated using a model of animal depression: the DRL-72s model. Male Sprague Dawley rats were used as experimental animals. Rats are trained to lever press for a 4″ access to 0.025 mL of water for each correct response during daily 60 minute sessions. All testing takes place on weekdays only. At the beginning of each session, the house light is illuminated and remains lit until the session ends. No other stimuli are presented during testing. After successful lever press training, rats are then required to respond under a DRL-24 second schedule, where only lever presses that are separated by 24 seconds are reinforced. Upon stable responding on a DRL-24 second schedule (5-10 sessions), rats are trained on a DRL-72 second schedule until responding stabilizes at approximately 15% efficiency (approx 25-35 sessions). Specifically, rats receive a reinforcer for each response that is emitted at least 72 seconds after the previous response (IRT). […] Efficiency is recorded as number of reinforced responses÷total number of responses. After stable baseline responding is achieved, defined as responding for 4 consecutive sessions with no more than 10% variability, animals begin drug testing. Animals receive drug no more than 1× per week.

Compound	Inference (Male Wistar rats)	% Suppression of food intake compared to vehicle (Male Wistar rats; 1 Hour)	% Suppression of food intake compared to vehicle (Male Wistar rats; 2 Hour)	% Suppression of food intake compared to vehicle (Male Wistar rats; 4 Hour)	% Suppression of food intake compared to vehicle (Male Wistar rats; 6 Hour)	Inference (Male Wister rats; 0.1 mg/kg p.o.)	Exploration time mean ± S.E.M, Familiar object (Male Wister rats; 0.1 mg/kg p.o.)	Exploration time mean ± S.E.M, Novel object (Male Wister rats; 0.1 mg/kg p.o.)	Kp ([1]; 15 mg/kg)	% Reduction in body weight gain compared to vehicle (Day 14) (High Fat Fed Rats)	Inference (High Fat Fed Rats)	Dose mg/kg, p.o. (DRL-72s) (Male Sprague Dawley rats)	Inference (Male Wister rats; 1 mg/kg p.o.)	Exploration time mean ± S.E.M, Familiar object (Male Wister rats; 1 mg/kg p.o.)	Exploration time mean ± S.E.M, Novel object (Male Wister rats; 1 mg/kg p.o.)	Kp ([1]; 5 mg/kg)
Cl.c1cncc(OCC2CC3CC3N2)c1 (stereo not shown) [Example 1, 3-(Pyridin-3-yloxymethyl)-2-azabicyclo[3.1.0]hexane hydrochloride]	Active	32.25%	25.40%	23.08%	15.37%	Active	7.75 ± 0.84 s	12.65 ± 1.96 s	3.8 ± 0.289	3.6%	Active	≦10 mg/kg, p.o.				
Cl.Cl.Clc1cncc(OCC2CC3CC3N2)c1 (stereo not shown) [Example 7, 3-(5-Chloropyridin-3-yloxymethyl)-2-azabicyclo[3.1.0]hexane dihydrochloride]													Active	6.81 ± 1.49 s	16.70 ± 3.19 s	3.79 ± 0.66
